In patent US10035789B2, “Compounds useful for treating disorders related to RET” (BLUEPRINT MEDICINES CORPORATION, priority 2016, dated 2018):

Assays:
wild type RET = target: T1, wild type RET (Homo sapiens, UniProt P07949); experiment: RET Wild Type Assay at KM (Caliper electrophoretic mobility shift); type: biochemical; conditions: 25 μM ATP, 25° C., 120 minutes
T1 construct: purchased ProQinase 1090-0000-1

RET V804L = target: T2, RET V804L (Homo sapiens, UniProt P07949, V804L); experiment: RET V804L Gatekeeper Mutant Assay at KM (Caliper electrophoretic mobility shift); type: biochemical; conditions: 10 μM ATP, 25° C., 120 minutes
T2 construct: purchased ProQinase 1096-0000-1
T2 sequence (P07949 29-1114 V804L): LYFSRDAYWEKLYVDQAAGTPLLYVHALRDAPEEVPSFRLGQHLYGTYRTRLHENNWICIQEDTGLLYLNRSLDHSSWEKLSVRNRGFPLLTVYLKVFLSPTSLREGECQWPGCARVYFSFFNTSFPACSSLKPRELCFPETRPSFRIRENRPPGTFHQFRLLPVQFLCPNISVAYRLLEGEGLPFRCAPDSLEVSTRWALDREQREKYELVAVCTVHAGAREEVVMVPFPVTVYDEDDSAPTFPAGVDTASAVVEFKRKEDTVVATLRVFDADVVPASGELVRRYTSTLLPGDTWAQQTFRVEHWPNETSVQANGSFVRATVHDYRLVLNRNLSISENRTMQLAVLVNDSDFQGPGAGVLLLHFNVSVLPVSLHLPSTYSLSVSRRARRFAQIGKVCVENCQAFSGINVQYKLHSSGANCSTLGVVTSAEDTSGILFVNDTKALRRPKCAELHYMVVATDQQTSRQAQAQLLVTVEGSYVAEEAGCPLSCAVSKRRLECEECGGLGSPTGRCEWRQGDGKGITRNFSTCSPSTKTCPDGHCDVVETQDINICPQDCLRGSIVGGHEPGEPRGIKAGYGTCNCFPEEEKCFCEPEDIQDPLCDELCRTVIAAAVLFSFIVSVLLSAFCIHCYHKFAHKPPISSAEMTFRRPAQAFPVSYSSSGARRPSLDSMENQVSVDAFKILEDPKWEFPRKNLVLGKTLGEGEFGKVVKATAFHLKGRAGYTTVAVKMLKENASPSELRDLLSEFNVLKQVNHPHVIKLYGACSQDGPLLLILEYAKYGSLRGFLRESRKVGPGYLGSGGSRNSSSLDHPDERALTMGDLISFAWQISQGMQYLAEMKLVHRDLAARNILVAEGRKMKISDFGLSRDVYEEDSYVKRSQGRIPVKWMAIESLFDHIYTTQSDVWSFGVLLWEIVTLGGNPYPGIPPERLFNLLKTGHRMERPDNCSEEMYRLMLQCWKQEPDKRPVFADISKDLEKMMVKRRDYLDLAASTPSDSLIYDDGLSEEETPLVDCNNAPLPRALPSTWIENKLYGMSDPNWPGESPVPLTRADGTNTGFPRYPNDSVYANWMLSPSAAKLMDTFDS

T1 sequence (P07949 29-1114): as the sequence (P07949 29-1114 V804L) above, with L776V counted along it

Structure (SMILES) | IC50 (wild type RET) [µM] | IC50 (RET V804L) [µM]
Cc1cc(Nc2cc(C)[nH]n2)nc(C2(O)CCC(C(=O)NCc3ccc(-n4nc(C)cc4C)nc3)C2)c1 (mixture of isomers) [Compound 111] | < 0.01 | < 0.01
Cc1cc(Nc2cc(C)[nH]n2)nc(C2(O)CCC(C(=O)N[C@@H](C)c3cnc(-n4cc(F)cn4)cn3)C2)c1 (mixture of isomers) [Compound 123] | < 0.01 | < 0.01
Cc1cc(Nc2cc(C)[nH]n2)nc(C2(O)CCC(C(=O)NCc3ccc(-n4cc(Cl)cn4)nc3)C2)c1 (mixture of isomers) [Compound 126] | < 0.01 | < 0.01
Cc1cc([C@@H]2CC[C@@](C)(C(=O)N[C@@H](C)c3ccc(-n4cc(F)cn4)nc3)C2)nc(Nc2cc(C)[nH]n2)n1 (single isomer, unassigned) [Compound 116, (1R,3R or 1S,3S)—N—((S)-1-(6-(4-fluoro-1H-pyrazol-1-yl)pyridin-3-yl)ethyl)-1-methyl-3-(6-methyl-2-((5-methyl-1H-pyrazol-3-yl)amino)pyrimidin-4-yl)cyclopentane-1-carboxamide] | < 0.01 | < 0.01
Cc1cc([C@@H]2CC[C@](C)(C(=O)N[C@@H](C)c3ccc(-n4cc(F)cn4)nc3)C2)nc(Nc2cc(C)[nH]n2)n1 (single isomer, unassigned) [Compound 117, (1R,3R or 1S,3S)—N—((S)-1-(6-(4-fluoro-1H-pyrazol-1-yl)pyridin-3-yl)ethyl)-1-methyl-3-(6-methyl-2-((5-methyl-1H-pyrazol-3-yl)amino)pyrimidin-4-yl)cyclopentane-1-carboxamide] | < 0.01 | < 0.01
Cc1cc(Nc2cc(C)[nH]n2)nc([C@]2(O)CC[C@@H](C(=O)N[C@@H](C)c3ccc(-n4cc(F)cn4)nc3)C2)c1 (single isomer, unassigned) [Compound 121] | < 0.01 | 
Cc1cc(Nc2cc(C)[nH]n2)nc([C@@]2(O)CC[C@H](C(=O)N[C@@H](C)c3ccc(-n4cc(F)cn4)nc3)C2)c1 (single isomer, unassigned) [Compound 122] | < 0.01 | < 0.01
Cc1cc(Nc2cc(C3CC3)[nH]n2)nc([C@@]2(O)CC[C@H](C(=O)NCc3ccccc3)C2)c1 [Compound 100] | 0.01 to 0.1 | < 0.01
Cc1cc(Nc2cc(C)[nH]n2)nc([C@@]2(O)CC[C@@H](C(=O)NCc3ccc(-n4cccn4)nc3)C2)c1 [Compound 101] | 0.01 to 0.1 | < 0.01
Cc1cc(Nc2cc(C)[nH]n2)nc([C@]2(O)CC[C@H](C(=O)NCc3ccc(-n4cccn4)nc3)C2)c1 [Compound 102] | 0.01 to 0.1 | 0.01 to 0.1
Cc1cc(Nc2cc(C)[nH]n2)nc([C@]2(O)CC[C@@H](C(=O)NCc3ccc(-n4cccn4)nc3)C2)c1 [Compound 103] | < 0.01 | < 0.01
Cc1cc(Nc2cc(C)[nH]n2)nc([C@@]2(O)CC[C@H](C(=O)NCc3ccc(-n4cccn4)nc3)C2)c1 [Compound 104] | 0.01 to 0.1 | < 0.01
CCOc1ccc(CNC(=O)C2CC[C@](O)(c3cc(C)cc(Nc4cc(C5CC5)[nH]n4)n3)C2)cc1 (stereo partly shown) [Compound 105] | < 0.01 | < 0.01
Cc1cc(Nc2cc(C)[nH]n2)nc(C2(O)CCC(C(=O)N[C@@H](C)c3ccc(-n4cc(F)cn4)nc3)C2)c1 (stereo partly shown) [Compound 118] | < 0.01 | < 0.01
Cc1cc(Nc2cc(C)[nH]n2)nc([C@@]2(O)CC[C@H](C(=O)N[C@@H](C)c3cnc(-n4cc(F)cn4)cn3)C2)c1 [Compound 124] | < 0.01 | < 0.01
Cc1cc(Nc2cc(C)[nH]n2)nc([C@]2(O)CC[C@@H](C(=O)N[C@@H](C)c3cnc(-n4cc(F)cn4)cn3)C2)c1 [Compound 125] | 0.01 to 0.1 | < 0.01
Cc1cc(Nc2cc(C3CC3)[nH]n2)nc([C@@]2(O)CC[C@H](C(=O)NCc3ccc(-n4cc(F)cn4)nc3)C2)c1 [Compound 127] | < 0.01 | < 0.01
Cc1cc(Nc2cc(C)[nH]n2)nc([C@]2(O)CC[C@@](C)(C(=O)N[C@@H](C)c3ccc(-n4cc(F)cn4)nc3)C2)c1 [Compound 128] | < 0.01 | < 0.01
Cc1cc(Nc2cc(C)[nH]n2)nc([C@@]2(O)CC[C@](C)(C(=O)N[C@@H](C)c3ccc(-n4cc(F)cn4)nc3)C2)c1 [Compound 129] | < 0.01 | < 0.01

Further lines, results first:

IC50 (wild type RET) [µM] | IC50 (RET V804L) [µM] | Structure (SMILES)
< 0.01 | < 0.01 | Cc1cc(Nc2cc(C)[nH]n2)nc(C2CCC(C(=O)N[C@@H](C)c3ccc(-n4cc(F)cn4)nc3)C2)n1 (mixture of isomers) [Compound 106, N—((S)-1-(6-(4-fluoro-1H-pyrazol-1-yl)pyridin-3-yl)ethyl)-3-(4-methyl-6-((5-methyl-1H-pyrazol-3-yl)amino)pyrimidin-2-yl)cyclopentane-1-carboxamide]
0.01 to 0.1 | 0.01 to 0.1 | Cc1cc(Nc2cc(C)[nH]n2)nc([C@@H]2CC[C@H](C(=O)N[C@@H](C)c3ccc(-n4cc(F)cn4)nc3)C2)n1 (single isomer, unassigned) [Compound 107]
0.01 to 0.1 | 0.01 to 0.1 | Cc1cc(Nc2cc(C)[nH]n2)nc([C@H]2CC[C@@H](C(=O)N[C@@H](C)c3ccc(-n4cc(F)cn4)nc3)C2)n1 (single isomer, unassigned) [Compound 108]
< 0.01 | < 0.01 | Cc1cc(Nc2cc(C)[nH]n2)nc([C@@H]2CC[C@@H](C(=O)N[C@@H](C)c3ccc(-n4cc(F)cn4)nc3)C2)n1 (single isomer, unassigned) [Compound 109]
< 0.01 | < 0.01 | Cc1cc(Nc2cc(C)[nH]n2)nc([C@H]2CC[C@H](C(=O)N[C@@H](C)c3ccc(-n4cc(F)cn4)nc3)C2)n1 (single isomer, unassigned) [Compound 110]
> 0.1 | 0.01 to 0.1 | Cc1cc(Nc2cc(C)[nH]n2)nc([C@@H]2CC[C@](C)(C(=O)N[C@@H](C)c3ccc(-n4cc(F)cn4)nc3)C2)n1 [Compound 112]
0.01 to 0.1 | 0.01 to 0.1 | Cc1cc(Nc2cc(C)[nH]n2)nc([C@H]2CC[C@@](C)(C(=O)N[C@@H](C)c3ccc(-n4cc(F)cn4)nc3)C2)n1 [Compound 113]
< 0.01 | < 0.01 | Cc1cc(Nc2cc(C)[nH]n2)nc([C@H]2CC[C@](C)(C(=O)N[C@@H](C)c3ccc(-n4cc(F)cn4)nc3)C2)n1 [Compound 114]
< 0.01 |  | Cc1cc(Nc2cc(C)[nH]n2)nc([C@@H]2CC[C@@](C)(C(=O)N[C@@H](C)c3ccc(-n4cc(F)cn4)nc3)C2)n1 [Compound 115]
< 0.01 | < 0.01 | Cc1cc(Nc2cc(C)[nH]n2)nc([C@@]2(O)CC[C@@H](C(=O)N[C@@H](C)c3ccc(-n4cc(F)cn4)nc3)C2)c1 [Compound 119]
0.01 to 0.1 | 0.01 to 0.1 | Cc1cc(Nc2cc(C)[nH]n2)nc([C@]2(O)CC[C@H](C(=O)N[C@@H](C)c3ccc(-n4cc(F)cn4)nc3)C2)c1 [Compound 120]
